One experiment has as its system AGPase. As to the kind of experiment: Allosteric effect of 3-PGA on AGPase activity in oilseed rape embryo. Format: biochemical, Brassica napus. Here is the method: The intermediates PEP and 3-PGA are known to allosterically affect enzymatic activity of ATP-dependent PFK and AGPase, respectively.
[…] 500 μl of common extraction buffer [10% (v/v) glycerol, 0.25% (w/v) BSA, 0.1% (v/v) Triton X-100, 50 mM Hepes/KOH, pH 7.5, 10 mM MgCl2, 1 mM EDTA, 1 mM EGTA, 1 mM benzamidine, 1 mM ε-aminocapronic acid, 1 mM phenylmethylsulfonyl fluoride (PMSF), […], 1 mM dithiothreitol (DTT)] and c. 10 mg polyvinyl pyrrolidone. PMSF was added just before extraction. DTT was omitted when using peroxidase-based or MTT-based indicator reactions (MTT: methylthiazolyldiphenyl-tetrazolium bromide). A 96-head liquid handling robot (Evolution P3, Perkin Elmer, Wellesey, Mass., USA) was used to perform subsequent dilutions of these initial extracts and to load extracts on to 96-well micro plates. During this process micro plates were maintained at 4° C. using peltier cooled blocks. […] The concentration of the products of these stopped reactions (NAD+, NADH, NADPH or glycerol-3-phosphate) was then determined using cycling assays. […] Nitrate reductase and glutamine synthetase were determined using end point assays (Gibon et al, 2004, supra). […] After measuring PK activity at pH 8.0 and at pH 6.7, the plastidic and cytosolic activities were calculated accordingly.

Another experiment relates to ATP-dependent PFK. As to the kind of experiment: Allosteric effect of PEP on ATP-dependent PFK activity in oilseed rape embryo. Format: biochemical, Brassica napus.
Experiment [1] concerns PPi-PFKs of Thermoproteus tenax, Naegleria fowleri, Methylococcus capsulatus or Amycolatopsis methanolica. The settings on record: Reshetnikov et al. 2008; Alves et al.; cited from earlier work.

Molecules are shown by their SMILES.

In the case of `O=C(O)[C@H](O)COP(=O)(O)O` [3-PGA, 3-phosphoglycerate], in the experiment on AGPase, the “effect on enzymatic activity of AGPase” value is reported as “clear activity changes”.

Consider `C=C(OP(=O)(O)O)C(=O)O` [PEP, phosphoenolpyruvate], for which the “effect on enzymatic activity of ATP-dependent PFK” value with ATP-dependent PFK is “clear activity changes”. In experiment [1], the “inhibition of PPi-PFK by PEP” value is on record as “not inhibited”.
